According to patent US7910621B2, “Small molecule antagonists of XIAP family proteins” (The Regents of the University of Michigan, priority 2004, dated 2011):

Experiments:
Jurkat-Vec cells = assay: Cell growth assay, Jurkat-Vec; format: cell-based; settings: read-out: IC50 cell growth inhibition
Description: (§1) FIG. 9 presents inhibition of cell growth by embelin in Jurkat-Vec and Jurkat-XIAP cells. The cell growth results are expressed as the percent of control and calculated from the percent of absorbance of treated wells versus that of vehicle control.
(§2) Human prostate cancer cell lines (PC-3, LNCap, CL-1, DU-145), and normal human fibroblast cell line WI-38 were obtained from the American Type Culture Collection (ATCC), were grown and maintained in Dulbecco's modified Eagle's medium (DMEM) containing 10% FBS (Invitrogen Corporation). Normal human prostate epithelial cells (PrEC) were obtained from Clonetics (Cambrex Inc., MD) and maintained in the special medium provided by the company. Jurkat T-cells stably transfected with either empty vector (Jurkat-Vec), or XIAP (Jurkat-XIAP) and were cultured in RPMI 1640 containing 10% fetal calf serum and 1 ug/ml puromycin. Cell cultures were maintained in a humidified incubator at 37° C. and 5% CO2.
Cell growth was determined by the MTT-based assay using Cell Proliferation Reagent WST-1 (Roche) according to the manufacturer's instruction. […] Absorbance was measured with a plate reader at […] with correction at […]. The results are expressed as the percent of absorbance of treated wells versus that of vehicle control.

Jurkat-XIAP cells [1] = assay: Cell growth assay, Jurkat-XIAP; format: cell-based; settings: essentially identical to that in Jurkat-Vec cells
Description: as §1, §2
Cell growth was determined by the MTT-based assay using Cell Proliferation Reagent WST-1 (Roche) according to the manufacturer's instruction. The WST-1 assay is a colorimetric assay that measures the reduction of WST-1 by mitochondrial succinate dehydrogenase, which belongs to the respiratory chain of the mitochondria and is active only in viable cells. The WST-1 enters the cells and passes into the mitochondria, where it is reduced to a soluble, colored formazan product. The amount of formazan dye formed directly correlates to the number of metabolically active cells in the culture. Cells (5000 cells/well) were grown in medium with 10% FBS, and various concentrations of drugs were added to the cells in triplicate. […] Absorbance was measured with a plate reader at […] with correction at […]. The results are expressed as the percent of absorbance of treated wells versus that of vehicle control.

Jurkat-XIAP cells [2] = assay: Annexin V-FITC apoptosis assay, Jurkat-XIAP; format: cell-based; settings: combination with etoposide, 15 hours
Description: FIGS. 8A and 8B present (A): Dose-dependent induction of apoptosis by etoposide in Jurkat cells transfected with vector control (Jurkat-Vec) and stably transfected with XIAP (Jurkat-XIAP cells); and (B): Induction of apoptosis by etoposide and embelin alone and in combination in Jurkat-Vec and Jurkat-XIAP cells. 1×10^6 Jurkat-XIAP or Jurkat-Vec cells per well in 6-well culture plates were treated with etoposide and embelin alone, or in combination for 15 hours, then stained with Annexin V-FITC and propidium iodide for apoptosis by flow cytometry. The results are shown as percent of Annexin V-FITC positive apoptotic cells.
PC-3 cells, 1×10^6 cells per well in 6-well culture plates, were treated in triplicate with various concentrations of embelin for 24 or 48 hours, then trypsinized and washed with PBS. For Jurkat cells, 1×10^6 Jurkat-XIAP or Jurkat-Vec cells per well in 6-well culture plates, were treated with etoposide, embelin, or both for 15 hours. For flow cytometry apoptosis assay, cells were stained with Annexin V-FITC and propidium iodide using the Annexin-V-FLUOS Kit (Roche) according to the manufacturer's instruction. The fluorescence of Annexin V-FITC and propidium iodide of individual cells was analyzed by FACScan. The results are shown as percent of Annexin V-FITC positive apoptotic cells.

[3] = molecular target: T1, human XIAP-BIR3 domain (residues 241-356) (Homo sapiens, UniProt P98170); assay: 15N-HSQC NMR binding confirmation; settings: 100 μM protein, 100 μM embelin, 30° C.
T1 construct: The human XIAP-BIR3 domain (residues 241-356) fused to His-tag; His-tag (pET-28b); made in house; host or cells: Escherichia coli BL21(DE3)
T1 sequence (P98170 241-356): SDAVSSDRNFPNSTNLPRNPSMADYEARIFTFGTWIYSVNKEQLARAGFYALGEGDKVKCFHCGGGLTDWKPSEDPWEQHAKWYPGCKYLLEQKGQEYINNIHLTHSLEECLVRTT
Description: To conclusively confirm that embelin binds to the XIAP BIR3 domain where Smac and caspase-9 bind, and to rule out any potential false positive, an analysis using nuclear magnetic resonance (NMR) Heteronuclear Single Quantum Coherence Spectroscopy (HSQC) method was performed. The human XIAP-BIR3 domain (residues 241-356) fused to His-tag was expressed in M9 medium containing ^15N ammonium chloride to uniformly label protein with ^15N and was purified. ^15N HSQC NMR spectra were recorded with embelin and without embelin at 30° C. […]
The NMR experiments were performed on a Varian Inova 500 with pulse field gradient (PFG) HSQC, with the water flip back to maximize the signal intensity and to minimize the destruction from the water signal (see, e.g., Grzesiek, S., et al., J. Am. Chem. Soc. 115, 12593-94 (1993); Sheppard, G. S., et al., Abstr. Pap.-Am. Chem. Soc. 213, 81 (1997)) (300 μM XIAP, 50 mM phosphate buffer pH 7.3, 2 mM DTT at 25° C.). ^15N HSQC NMR spectra were recorded with samples containing 100 μM of the ^15N protein in 50 mM Tris (pH 7.2), 50 μM Zn(Cl)2, 1 mM DTT at 30° C. with 100 μM embelin and without it. […]

CCCCCCCCCCCC1=C(O)C(=O)C=C(O)C1=O [embelin]
IC50 (Jurkat-Vec cells): 20 µM
activity in cell growth assay (Jurkat-XIAP cells [1]): weak activity
percentage of apoptotic cells in combination, compared to either drug alone (Jurkat-XIAP cells [2]): significantly increased
binding site on XIAP BIR3 by 15N HSQC NMR [3]: binds to the surface groove in the XIAP BIR3 domain where Smac and caspase-9 bind
